Common to all, as to format: in vivo
Experiment [1] relates to Kochia (Kochia scoparia). Briefly: Test A preemergence. Particulars: Bassia scoparia, pre-emergence, 240 h; for pest or weed control at 125 g/ha: 125 g ai/ha, preemergence, 0 to 100 scale where 0 is no effect and 100 is complete control, read-out: Kochia plant response rating; for pest or weed control at 500 g/ha: 500 g ai/ha, Preemergence, visual injury vs untreated controls after approximately 10 d, read-out: Kochia plant response rating (0 to 100 scale where 0 is no effect and 100 is complete control). The essentials:
(§1)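 Visual injury, scored on a 0–100 scale relative to untreated controls, was recorded about 10 d after application. Treatments were a preemergence soil spray over planted seeds or a postemergence spray on plants at the one- to two-leaf stage, 2 to 10 cm tall, all in loam soil–sand blend in the greenhouse.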

Experiment [2] has as its system giant foxtail (Setaria faberii). Briefly: Test A preemergence. Particulars: Setaria faberi, pre-emergence, 240 h; for pest or weed control at 125 g/ha: 125 g ai/ha, preemergence, 0 to 100 scale where 0 is no effect and 100 is complete control, read-out: Foxtail, Giant plant response rating; for pest or weed control at 500 g/ha: 500 g ai/ha, Preemergence, visual injury vs untreated controls after approximately 10 d, read-out: Foxtail, Giant plant response rating (0 to 100 scale where 0 is no effect and 100 is complete control). The essentials:
as §1

In experiment [3] the test system is barnyardgrass (Echinochloa crus-galli). Briefly: Test A preemergence. The conditions noted are these: Echinochloa crus-galli, pre-emergence, 240 h; for pest or weed control at 125 g/ha: 125 g ai/ha, preemergence, 0 to 100 scale where 0 is no effect and 100 is complete control, read-out: Barnyardgrass plant response rating; for pest or weed control at 500 g/ha: 500 g ai/ha, Preemergence, visual injury vs untreated controls after approximately 10 d, read-out: Barnyardgrass plant response rating (0 to 100 scale where 0 is no effect and 100 is complete control). The essentials: as §1

The test system of experiment [4] is pigweed (Amaranthus retroflexus). Put plainly: Test A preemergence. The conditions noted are these: Amaranthus retroflexus, pre-emergence, 240 h; for pest or weed control at 125 g/ha: 125 g ai/ha, preemergence, 0 to 100 scale where 0 is no effect and 100 is complete control, read-out: Pigweed plant response rating; for pest or weed control at 500 g/ha: 500 g ai/ha, Preemergence, visual injury vs untreated controls after approximately 10 d, read-out: Pigweed plant response rating (0 to 100 scale where 0 is no effect and 100 is complete control).

The test system of experiment [5] is ragweed (common ragweed, Ambrosia elatior). Briefly: Test A preemergence. Particulars: Ambrosia artemisiifolia, pre-emergence, 240 h; for pest or weed control at 125 g/ha: 125 g ai/ha, preemergence, 0 to 100 scale where 0 is no effect and 100 is complete control, read-out: Ragweed plant response rating; for pest or weed control at 500 g/ha: 500 g ai/ha, Preemergence, visual injury vs untreated controls after approximately 10 d, read-out: Ragweed plant response rating (0 to 100 scale where 0 is no effect and 100 is complete control). The method in brief:
as §1

The test system of experiment [6] is ryegrass, Italian (Italian ryegrass, Lolium multiflorum). Put plainly: Test A preemergence. The conditions noted are these: Lolium multiflorum, pre-emergence, 240 h; for pest or weed control at 125 g/ha: 125 g ai/ha, preemergence, 0 to 100 scale where 0 is no effect and 100 is complete control, read-out: Ryegrass, Italian plant response rating; for pest or weed control at 500 g/ha: 500 g ai/ha, Preemergence, visual injury vs untreated controls after approximately 10 d, read-out: Ryegrass, Italian plant response rating (0 to 100 scale where 0 is no effect and 100 is complete control). The essentials:
as §1

In experiment [7] the test system is Kochia (Kochia scoparia). Put plainly: Test A postemergence. Particulars: Bassia scoparia, post-emergence, 240 h, 125 g ai/ha, postemergence, visual injury rating after approximately 10 d; read-out: Kochia plant response rating (0 to 100 scale, 0 no effect, 100 complete control). The method in brief: as §1
In experiment [8] the test system is giant foxtail (Setaria faberii). Put plainly: Test A postemergence. Particulars: Setaria faberi, post-emergence, 240 h, 125 g ai/ha, postemergence, visual injury rating after approximately 10 d; read-out: Foxtail, Giant plant response rating (0 to 100 scale, 0 no effect, 100 complete control). The method in brief:
as §1

Experiment [9] concerns blackgrass (Alopecurus myosuroides). Put plainly: Test A postemergence. The conditions noted are these: Alopecurus myosuroides, post-emergence, 240 h, 125 g ai/ha, postemergence, visual injury rating after approximately 10 d; read-out: Blackgrass plant response rating (0 to 100 scale, 0 no effect, 100 complete control). The method in brief:
as §1

For experiment [10], the system named is barnyardgrass (Echinochloa crus-galli). Briefly: Test A postemergence. The conditions noted are these: Echinochloa crus-galli, post-emergence, 240 h, 125 g ai/ha, postemergence, visual injury rating after approximately 10 d; read-out: Barnyardgrass plant response rating (0 to 100 scale, 0 no effect, 100 complete control). The method in brief: as §1
The subject of another experiment is corn (Zea mays). Briefly: Test A postemergence. The conditions noted are these: Zea mays, post-emergence, 240 h, 125 g ai/ha, postemergence, visual injury rating after approximately 10 d; read-out: Corn plant response rating (0 to 100 scale, 0 no effect, 100 complete control). The method in brief:
as §1

Experiment [11] deals with Galium (catchweed bedstraw, Galium aparine). Put plainly: Test A postemergence. The conditions noted are these: Galium, post-emergence, 240 h, 125 g ai/ha, postemergence, visual injury rating after approximately 10 d; read-out: Galium plant response rating (0 to 100 scale, 0 no effect, 100 complete control). The method in brief: as §1
Experiment [12] has as its system pigweed (Amaranthus retroflexus). Put plainly: Test A postemergence. The conditions noted are these: Amaranthus retroflexus, post-emergence, 240 h, 125 g ai/ha, postemergence, visual injury rating after approximately 10 d; read-out: Pigweed plant response rating (0 to 100 scale, 0 no effect, 100 complete control). The essentials: as §1
Experiment [13] relates to ragweed (common ragweed, Ambrosia elatior). Briefly: Test A postemergence. The conditions noted are these: Ambrosia artemisiifolia, post-emergence, 240 h, 125 g ai/ha, postemergence, visual injury rating after approximately 10 d; read-out: Ragweed plant response rating (0 to 100 scale, 0 no effect, 100 complete control). The essentials: as §1
In experiment [14] the test system is wheat (Triticum aestivum). Briefly: Test A postemergence. The conditions noted are these: Triticum aestivum, post-emergence, 240 h, 125 g ai/ha, postemergence, visual injury rating after approximately 10 d; read-out: Wheat plant response rating (0 to 100 scale, 0 no effect, 100 complete control). The essentials: as §1
Experiment [15] concerns ryegrass, Italian (Italian ryegrass, Lolium multiflorum). Put plainly: Test A postemergence. Particulars: Lolium multiflorum, post-emergence, 240 h, 125 g ai/ha, postemergence, visual injury rating after approximately 10 d; read-out: Ryegrass, Italian plant response rating (0 to 100 scale, 0 no effect, 100 complete control). The essentials: as §1

Consider `COc1c(F)ccc([C@H]2CNC(=O)[C@@H]2C(=O)Nc2ccccc2F)c1Cl` [Compound 881], for which the pest or weed control at 125 g/ha was found to be 30% with Kochia (Kochia scoparia) [1]; 80% in [2]; 80% in [3]; 0% in [4]; 0% in experiment [5]; 30% in [6]. For the same molecule, the pest or weed control at 125 g/ha in the experiment with Kochia (Kochia scoparia) [7] stood at 30%; in [8] it was 80%; in experiment [9], 0%; in experiment [10], 90%; in [11] it was 0%; in experiment [12], 0%. Besides, the pest or weed control at 125 g/ha in [13] was 0%; in experiment [15] it was 30%. For the same molecule, the pest or weed control at 500 g/ha stood at 60% with Kochia (Kochia scoparia) [1]; 90% in experiment [2]; 90% in experiment [3]; 0% in experiment [4]; 0% in experiment [5]; 60% in experiment [6]. Besides, the plant injury at 125 g/ha (in the experiment with corn (Zea mays); in [14]) was 0% throughout.
For the molecule `COc1c(F)ccc([C@H]2CNC(=O)[C@@H]2C(=O)Nc2cccc(F)c2F)c1Cl` [Compound 882], the pest or weed control at 125 g/ha in the experiment on Kochia (Kochia scoparia) [1] turned out to be 70%; in experiment [2] it was 70%; in experiment [3], 90%; in experiment [4] it was 20%; in experiment [5], 30%; in experiment [6], 0%. The pest or weed control at 125 g/ha in the experiment on Kochia (Kochia scoparia) [7] was 60%; in experiment [8], 70%; in experiment [9] it was 40%; in experiment [10], 80%; in experiment [11], 50%; in experiment [12], 30%. Besides, the pest or weed control at 125 g/ha in experiment [13] was determined as 0%; in [15], 40%. The pest or weed control at 500 g/ha with Kochia (Kochia scoparia) [1] is 90%; in experiment [2] it was 90%; in experiment [3], 90%; in [4], 20%; in experiment [5] it was 60%; in experiment [6] it was 30%. Also, the plant injury at 125 g/ha came out at 80% with corn (Zea mays) and 0% in [14].
For the molecule `O=C1NC[C@H](c2ccc3c(c2)CCCO3)[C@H]1C(=O)Nc1ccccc1F` [Compound 885], the pest or weed control at 125 g/ha came to 0% with Kochia (Kochia scoparia) [1]; 50% in experiment [2]; 70% in experiment [3]; 0% in experiment [4]; 0% in experiment [5]; 0% in experiment [6]. The pest or weed control at 125 g/ha with Kochia (Kochia scoparia) [7] worked out at 0%; in experiment [8], 40%; in experiment [9], 0%; in experiment [10], 70%; in [11], 20%; in [12] it was 0%. The pest or weed control at 125 g/ha in experiment [13] and in [15] was 0% throughout. The pest or weed control at 500 g/ha was determined as 0% in the experiment on Kochia (Kochia scoparia) [1]; 80% in [2]; 90% in experiment [3]; 0% in [4]; 0% in [5]; 20% in experiment [6]. Besides, the plant injury at 125 g/ha (in the experiment with corn (Zea mays); in experiment [14]) was 0% throughout.
On to `O=C1NC[C@H](c2cncc(C(F)(F)F)c2)[C@H]1C(=O)Nc1ccccc1F` [Compound 887], for which the pest or weed control at 125 g/ha came out at 0% in the experiment with Kochia (Kochia scoparia) [1]; 80% in [2]; 90% in [3]; 0% in experiment [4]; 0% in experiment [5]; 0% in experiment [6]. Further, the pest or weed control at 125 g/ha in the experiment with Kochia (Kochia scoparia) [7] came out at 0%; in [8], 70%; in [9] it was 0%; in [10], 80%; in experiment [11] it was 0%; in [12], 0%. For the same molecule, the pest or weed control at 125 g/ha in experiment [13] and in [15] was 0% each time. The pest or weed control at 500 g/ha with Kochia (Kochia scoparia) [1] came to 20%; in experiment [2], 90%; in [3] it was 90%; in experiment [4] it was 0%; in experiment [5], 0%; in experiment [6], 0%. Moreover, the plant injury at 125 g/ha (with corn (Zea mays); in [14]) was 0% each time.
